{
  "source": "ChEMBL document CHEMBL4680108",
  "about": "“Ancistrolikokine E, a 5,8'-Coupled Naphthylisoquinoline Alkaloid, Eliminates the Tolerance of Cancer Cells to Nutrition Starvation by Inhibition of the Akt/mTOR/Autophagy Signaling Pathway” (2018)",
  "system": "PANC-1",
  "assay": "Inhibition of autophagy in human PANC-1 cells cultured in nutrient-deprived medium assessed as inhibition of LC3-2 expression at […] after 6 hrs by Western blot analysis relative to control",
  "type": "functional",
  "data": [
    {"smiles": "Cn1cnc(N)c2ncnc1-2", "note": "[3-METHYLADENINE]", "values": [
      {"measurement": "fold change (FC)", "result": 2}
    ]}
  ]
}
